Results from patent US4499093A, “Interferon induction method” (Dso "Pharmachim", priority 1982, dated 1985).
Values joined by “and” are separate entries in the source; they are usually repeats but may differ in a detail not shown here. Equal entries are not always repeated. Structures can show the parent of a compound that is named as a salt.

Key:
[1] = internal / in vivo, background; cited from earlier work
Herpes simplex 1 virus = system: Herpes simplex 1 virus; design: species or system white mice; details: mouse, in vivo
acute toxicity (LD50) = assay: acute toxicity (LD50); design: species or system white mice; details: mouse, in vivo; intravenous; read-out: single LD50
Semliki virus = system: Semliki virus; design: species or system white mice; details: mouse, in vivo
[2] = system: Mouse peritoneal leucocytes
Procedure: (§1) In monolayer cellular cultures (L-cells, mouse embryonal fibroblasts, human diploid embryonal pulmonary fibroblasts), the interferon titre is measured and the antiviral resistance is simultaneously determined. […] Incubation of the cultures is carried out for 24 hours at 37° C.; The culture medium after determining its cytotoxicity microscopically is collected for the interferon titre measurement. The cells are rinsed in Hanks' saline solution and inoculated by 100 TCID50 virus of the vesicular stomatite (Indiana strain). The cytopathic effect and the infectious virus yield are specified the basis of which the state of the antiviral resistancy is determined.
(§2) The interferon titre is determined as follows: by the plaque-inhibition method in L-cells or in human embryonal diploid fibroblasts using the vesicular stomatite virus (Indiana strain) by a detector virus; by the cytopathic effect inhibition method of the same virus (using human embryonal diploid fibroblasts). It is expressed in IU/ml by comparing the reference preparations of mouse or human interferon.

L-cells [3] = assay: cells; details: Mus musculus, read-out: MinIFN-IC (minimum interferon-inducing concentration)
Procedure: as §1, §2

L-cells [4] = system: L-cells
Procedure: as §1, §2

serum interferon [5] = assay: serum interferon titre in human volunteers; design: average geometrical interferon titre: dose or concentration left out as unconfirmed
Procedure: as §2

[6] = system: some DNA and RNA-containing viruses; details: cellular cultures, background; cited from earlier work
[7] = system: Mouse peritoneal leucocytes; assay: cells; details: Leucocyte, read-out: MinIFN-IC (minimum interferon-inducing concentration)
Procedure: as §1, §2

influenza virus A = influenza virus A experimental infection in white mice; format: in vivo; details: oral or intraperitoneal single dose 24 h before, 24 or 72 h after inoculation
[8] = system: Mouse embryonal fibroblasts; assay: interferon induction in mouse embryonal fibroblasts
Procedure: as §1, §2

[9] = system: Human diploid embryonal fibroblasts; assay: cells; details: Fibroblast, read-out: MinIFN-IC (minimum interferon-inducing concentration)
Procedure: as §1, §2

[10] = system: Human diploid embryonal fibroblasts
Procedure: as §1, §2

serum interferon [11] = assay: interferon-inducing activity in vivo in white mice (serum interferon titre)
Procedure: Serum samples for measuring the interferon titre are taken on the 6th, 12th, 24th, 48th, 72nd and 96th hour (mixed serum sample of minimum 8 animals).
as §2

[12] = intravenous, 0.1 mg/kg, 48th hour

CCN(CC)CCOc1ccc2c(c1)C(=O)c1cc(OCCN(CC)CC)ccc1-2 [tilorone-hydrochloride]
toxicity [1]: toxic and unsuitable for clinical application

OCCN(CCO)c1nc(N2CCCCC2)c2nc(N(CCO)CCO)nc(N3CCCCC3)c2n1 [Dipyridamole, 2,6-bis (diethanolamino)-4,8-dipiperidinopyramido [5,4-d]pyrimidine]
Lethality % M ± m (Herpes simplex 1 virus): 55.0 ± 11.41% | Lethality No. (Herpes simplex 1 virus): 11/20 | Mean survival time (Herpes simplex 1 virus): 17.3 ± 2.64 days | Protection coefficient (Herpes simplex 1 virus): 1.81 | antiviral effect in oral application vs intraperitoneal (Herpes simplex 1 virus): much stronger | protective effect (Herpes simplex 1 virus): marked protective effect | t (Herpes simplex 1 virus): 3.94 | LD50 (acute toxicity (LD50)): 150 mg/kg | Lethality % M ± m (Semliki virus): 30.0 ± 15.27% and 40.0 ± 16.32% | Lethality No. (Semliki virus): 3/10 and 4/10 | Mean survival time (Semliki virus): 22.6 ± 3.77 days and 20.7 ± 3.82 days | Protection coefficient (Semliki virus): 2.4 and 1.8 | antiviral effect in oral application vs intraperitoneal (Semliki virus): much stronger | protective effect (Semliki virus): marked protective effect | t (Semliki virus): 3.02 and 2.64 | Maximum interferon titre [2]: ≥ 256 IU/ml | OptINF-IC (optimum interferon-inducing concentration) [2]: 100-1000 | interferon titre compared with double-stranded RNA of phage f2 [2]: higher than that induced by double-stranded RNA of phague f2 of E. coli | optimum interferon-inducing concentration [2]: 100 µM | minimal effective concentration (L-cells [3]): 10 µM | Maximum interferon titre (L-cells [4]): ≥ 128 IU/ml | OptINF-IC (optimum interferon-inducing concentration) (L-cells [4]): 30-300 micromol/1 | induced interferon titre (L-cells [4]): over 128 IU/ml | induced interferon titres (L-cells [4]): exceed 128 IU/ml | interferon production compared with poly I:C (L-cells [4]): markedly exceeds the interferon production of poly I:C | Mean serum interferon titre, positive responders (serum interferon [5]; 0 hours after administration (baseline)): 5.2 ± 1.7 IU/ml | subjects with marked raising of serum interferon level (serum interferon [5]; 100 mg single oral dose, 20 men and women, 24th and 48th hour): 80% | Mean serum interferon titre, positive responders (serum interferon [5]; 24-48 hours after administration): 1069.0 ± 479.7 IU/ml | increase of average geometrical interferon titres vs initial level (serum interferon [5]; 24-48 hours, oral): Over 200 time | average geometrical interferon titre (serum interferon [5]; 24-48 hours, oral single doses as printed): 1069.0±479.7 IU/ml | average geometrical interferon titre, initial level (serum interferon [5]; initial level before dipyridamole): 5.2±1.7 IU/ml | treated subjects with marked interferon production (serum interferon [5]; oral, single doses (1-2 mg/kg)): 80% | antiviral effect in in vitro testing [6]: antiviral effect | minimal effective concentration [7]: 3 µM | protective effect (influenza virus A): marked protective effect | OptINF-IC (optimum interferon-inducing concentration) [8]: 300 micromol/1 | minimal effective concentration ([8]; Mus musculus, Fibroblast, read-out: MinIFN-IC (minimum interferon-inducing concentration)): 100 µM | Maximum interferon titre ([8]; induced by OptINF-IC): 16 IU/ml | minimal effective concentration [9]: 10 µM | Maximum interferon titre [10]: 16-32 | OptINF-IC (optimum interferon-inducing concentration) [10]: 100-300 micromol/1 | preservation of high serum interferon levels (serum interferon [11]; even 96 hours after administration): relatively continuous preservation of the high interferon levels | time of peak interferon levels (serum interferon [11]; intraperitoneal, 16.7 mg/kg): 24 to 48 h | maximum titres / peak levels (serum interferon [11]; intraperitoneal, 16.7 mg/kg, 24-48th hour): 256 IU/ml | interferon concentrations until the 120th hour (serum interferon [11]; intraperitoneal, 16.7 mg/kg, until 120th hour): Marked concentrations | interferon-inducing activity of lower doses (serum interferon [11]; intraperitoneal, lower doses, under 0.1 mg/kg inclusive): lower but better marked activity | effective doses (serum interferon [11]; intraperitoneal, "or more"): 0.1 to 16.7 mg/kg | effective doses (serum interferon [11]; intravenous): 0.01 to 50 mg/kg | Interferon titre in serum (serum interferon [11]; intravenous, 0.01 mg/kg, 72nd hour): 16 IU/ml | Interferon titre in serum (serum interferon [11]; intravenous, 0.05 mg/kg, 24th hour): < 4 IU/ml | Interferon titre in serum (serum interferon [11]; intravenous, 0.05 mg/kg, 48th hour): 64 IU/ml | Interferon titre in serum (serum interferon [11]; intravenous, 0.05 mg/kg, 72nd hour): 32 IU/ml | Interferon titre in serum (serum interferon [11]; intravenous, 0.1 mg/kg, 6th hour): ≤ 4 IU/ml | Interferon titre in serum (serum interferon [11]; intravenous, 0.1 mg/kg, 12th hour): ≤ 4 IU/ml | Interferon titre in serum (serum interferon [11]; intravenous, 0.1 mg/kg, 24th hour): ≤ 4 IU/ml | Interferon titre in serum (serum interferon [11]; [12]): 128 IU/ml | maximum titres (serum interferon [11]; [12]): 128 IU/ml | Interferon titre in serum (serum interferon [11]; intravenous, 0.1 mg/kg, 72nd hour): 32 IU/ml | Interferon titre in serum (serum interferon [11]; intravenous, 0.2 mg/kg, 24th hour): ≤ 4 IU/ml | Interferon titre in serum (serum interferon [11]; intravenous, 0.2 mg/kg, 48th hour): 32 IU/ml | Interferon titre in serum (serum interferon [11]; intravenous, 0.2 mg/kg, 72nd hour): 32 IU/ml | Interferon titre in serum (serum interferon [11]; intravenous, 0.6 mg/kg, 6th hour): < 4 IU/ml | Interferon titre in serum (serum interferon [11]; intravenous, 0.6 mg/kg, 12th hour): 8 IU/ml | Interferon titre in serum (serum interferon [11]; intravenous, 0.6 mg/kg, 24th hour): 32 IU/ml | Interferon titre in serum (serum interferon [11]; intravenous, 0.6 mg/kg, 48th hour): 16 IU/ml | Interferon titre in serum (serum interferon [11]; intravenous, 0.6 mg/kg, 72nd hour): 16 IU/ml | Interferon titre in serum (serum interferon [11]; intravenous, 1.8 mg/kg, 12th hour): 16 IU/ml | Interferon titre in serum (serum interferon [11]; intravenous, 1.8 mg/kg, 24th hour): 16 IU/ml | Interferon titre in serum (serum interferon [11]; intravenous, 1.8 mg/kg, 72nd hour): 8 IU/ml | Interferon titre in serum (serum interferon [11]; intravenous, 5.5 mg/kg, 12th hour): 16 IU/ml | Interferon titre in serum (serum interferon [11]; intravenous, 5.5 mg/kg, 24th hour): 16 IU/ml | Interferon titre in serum (serum interferon [11]; intravenous, 17.7 mg/kg, 12th hour): 32 IU/ml | Interferon titre in serum (serum interferon [11]; intravenous, 17.7 mg/kg, 24th hour): 16 IU/ml | Interferon titre in serum (serum interferon [11]; intravenous, 50.0 mg/kg, 12th hour): 8 IU/ml | Interferon titre in serum (serum interferon [11]; intravenous, 50.0 mg/kg, 24th hour): 8(4) IU/ml | time of maximum interferon levels (serum interferon [11]; intravenous, higher doses than 0.1 mg/kg): 12 to 24 h | time of maximum titres (serum interferon [11]; oral): 24 to 48 h | serum interferon level at 12th hour (serum interferon [11]; oral, 6.25-100 mg/kg, 12th hour): 128-256 IU/ml | peak serum interferon values (serum interferon [11]; oral, 12.5 or 25 mg/kg, 48th hour): 4096-8192 IU/ml | maximum serum interferon titres (serum interferon [11]; oral, 24-48 hour): 4096-8192 IU/ml | interferon levels at 120th hour (serum interferon [11]; oral): marked interferon levels in the blood | interferon levels at 120th hour (serum interferon [11]; oral, listed as dipyridamole): higher than those in the control (placebo) group | serum interferon level at 12th hour (serum interferon [11]; oral, single doses, 12th hour): 128-256 IU/ml

poly I:C
toxicity [1]: toxic internally
